Results as given in patent publication US20160151486A1, “CD40 Signalling Inhibitor and a Further Compound, Wherein the Further Compound is a Bile Acid, a Bile Acid Derivative, an TGR5-Receptor Agonist, an FXR Agonist or a Combination Thereof, for the Treatment of Chronic Inflammation, and the Prevention of Gastrointestinal Cancer or Fibrosis” (Fast Forward Pharmaceuticals B.V., priority 2013, published 2016).

Experiments:
[1] = tested on: peripheral blood mononuclear cells (PBMC); assay: Cytokine secretion by PBMC stimulated with megaCD40L and LPS (after IFN-γ); type: cell-based, human
Protocol: (§1) PBMC were freshly isolated from heparinized human blood using Fycoll density gradient centrifugation (Histopaque; Sigma Diagnostics). PBMC were cultured in RPMI containing 10% FCS in round-bottom 96-well plates at a concentration of 5×10E5 cells/mL. Two different stimuli were used to induce cytokine secretion from PBMC: • 1. PBMC were cultured in the presence of IFN-γ (250 U/mL) for 24 hours to induce upregulation of CD40. The CD40 pathway was subsequently activated for 24 hours with megaCD40L (100 ng/mL, Enzo Life Sciences). • 2. PBMC were cultured in the presence of IFN-γ for 24 hours to induce upregulation of CD40. Cells were subsequently stimulated for 24 hours with megaCD40L (100 ng/mL) and LPS (100 ng/mL).
(§2) Stimulated PBMC were cultured in the absence or presence of variable concentrations of PG102 (5, 10 and 100 ng/mL) and/or 6-ECDCA (0.1, 1 and 5 μM). PG102 was added simultaneously with the stimulus. In contrast, 6-ECDCA was added 3 hours before adding the stimulus. At the end of the culture period, supernatants were collected and stored at −80° C. until cytokine analysis was performed. The BD cytometric Bead Array (CBA) Human Inflammatory Cytokines Kit (BD Biosciences) was used to measure IL-1β, IL-8, IL-6, TNF and IL-12p70 levels in the culture supernatants. The assay was performed according to the manufacturer's instructions. In brief, capture beads for the cytokines of interest were mixed with supernatant or human inflammatory cytokine standards and PE detection reagent. Samples were incubated for 3 hours at room temperature in the dark. Subsequently, samples were washed and analyzed on a FACS CANTO II cytometer (BD Biosciences). Data was analyzed using de FCAP Array software (BD Biosciences).

[2] = tested on: chemically induced intestinal inflammation; conditions: in vivo; cited from earlier work
[3] = tested on: peripheral blood mononuclear cells (PBMC); assay: Cytokine secretion by PBMC stimulated with megaCD40L (after IFN-γ); type: cell-based, human; conditions: megaCD40L stimulus
Protocol: as §1, §2

C57/Bl6 wild type mice = assay: DSS-induced colitis mouse model; type: in vivo
Protocol: Colitis was induced in C57/Bl6 wild type mice by administration of 2.5% (wt/vol) Dextran Sodium Sulphate (DSS; MW. 36000-50000 Da, MP Biochemicals Inc) in drinking water for 8 days. Pharmacological activation of FXR was accomplished by treatment with 6-ethyl-chenodeoxycholic acid (6-ECDCA). 6-ECDCA (10 mg/kg/day) or vehicle were administered by oral gavage for three days prior to the start of DSS-treatment, and continued until the end of the DSS-treatment. At the second day of DSS treatment (day 4 of 6-ECDCA treatment), mice were given an intraperitoneal (i.p.) injection with 250 μg of the hamster antibody against mouse CD40L, MR-1, or control IgG (LEAF™ Purified Armenian Hamster IgG Isotype Ctrl Antibody, Biolegend).
There were 5 treatment groups (n=10 mice/group) in the experiment: […]
Daily changes in body weight were assessed and the body weight at day 2-11 was expressed relative to the body weight at day 1. […] 4 h after FITC administration, mice were sacrificed and the amount of fluorescence in the blood was determined as a marker for permeability. The colon was isolated and colon length was measured. […] Granulocytes were identified based on GR-1 and CD11b expression and expressed as percentage of living cells in the spleen. […] Culture supernatants were collected and TNF was measured using an ELISA.

[4] = tested on: LPS-induced TNF production; conditions: cited from earlier work
[5] = 6-ECDCA 5 μM, megaCD40L and LPS stimulus

CC[C@H]1[C@@H](O)[C@@H]2[C@H](CC[C@]3(C)[C@@H]([C@H](C)CCC(=O)O)CC[C@@H]23)[C@@]2(C)CC[C@@H](O)C[C@@H]12 [6-ECDCA, 6-ethyl-chenodeoxycholic acid]
inhibition of IL-1β [1, 5]: 12%
inhibition of IL-6 [1, 5]: 0%
inhibition of IL-8 [1, 5]: 9%
inhibition of IL-12p70 [1, 5]: 22%
inhibition of TNF [1, 5]: 21%
inhibiting proinflammatory cytokine release ([1]; activation of the CD40 pathway alone or in combination with the TLR-4 pathway): not very effective
chemically induced intestinal inflammation [2]: interfere with chemically induced intestinal inflammation
inhibition of IL-1β release ([3]; 6-ECDCA 5 μM): 35%
inhibition of IL-6 release ([3]; 6-ECDCA 5 μM): 18%
inhibition of IL-8 release ([3]; 6-ECDCA 5 μM): 17%
inhibition of IL-12p70 release ([3]; 6-ECDCA 5 μM): 20%
inhibition of TNF release ([3]; 6-ECDCA 5 μM): 14%
release of TNF, IL-6, IL-8, IL-1β and IL-12p70 ([3]; 6-ECDCA alone at 0.1 or 1 μM): did not inhibit
colitis disease process induced by DSS (C57/Bl6 wild type mice; 6-ECDCA 10 mg/kg/day oral gavage, MR-1 250 μg i.p. once, second day of DSS): interfered with the colitis disease process
granulocytes in the spleen (GR-1, CD11b; FACS) (C57/Bl6 wild type mice; end of experiment, FIG. 11): increase in granulocytes
LPS-induced TNF production [4]: inhibit LPS-induced TNF production in a dose-dependent fashion
